Values of other authors as cited in patent US20250213503A1, “TREATMENT OF CANCER WITH S1P RECEPTOR AGONISTS” (PRIOTHERA SAS, priority 2022, published 2025).

Target: S1PR1 (Homo sapiens, UniProt P21453)
Sequence (P21453 whole entry, species assumed): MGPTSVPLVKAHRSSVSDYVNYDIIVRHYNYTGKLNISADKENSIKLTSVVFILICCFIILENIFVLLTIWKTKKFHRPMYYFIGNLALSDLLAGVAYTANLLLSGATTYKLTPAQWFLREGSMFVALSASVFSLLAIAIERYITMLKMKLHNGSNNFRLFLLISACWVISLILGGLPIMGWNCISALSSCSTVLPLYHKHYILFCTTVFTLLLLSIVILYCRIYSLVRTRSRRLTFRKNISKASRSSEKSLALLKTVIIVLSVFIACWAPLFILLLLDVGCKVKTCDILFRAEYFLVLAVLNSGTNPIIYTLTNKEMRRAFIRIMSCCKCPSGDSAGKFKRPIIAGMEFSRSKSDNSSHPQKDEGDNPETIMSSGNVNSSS

For CCCCCCCCc1ccc(CCC(N)(CO)CO)cc1 [FTY720], the “selectivity for S1PR1 versus S1PR3-5” value is listed as “poor selectivity for S1PR1 versus S1PR3-5”.
